From patent US12691143B2, “Method for treating cancer” (priority 2020, dated 2026)
Entries after “also recorded” stand apart in the source; their conditions may differ.

System: bladder cancer cell lines
Assay: In vitro drug sensitivity assay / crystal violet staining, cell line panel
Assay type: cell-based
Settings: most bladder cancer cell lines
Procedure: Cells were seeded in either 96-well (5,000 cells/well) or 24-well (20,000 cells/well) plates. The following day, irofulven and cisplatin stock solutions were serially diluted in media and added to cells. After 48 to 72 hours, media was removed and CellTiter-Glo® reagent (Promega; Madison, WI) was added. Plates were scanned using a luminescence microplate reader (BioTek). Survival at each drug concentration was plotted as a percentage of survival in drug-free media with error bars representing the standard deviation of at least three experiments.
For crystal violet imaging experiments, cells were seeded in 6-well plates (100,000-200,000 cells/well) with 15 nM siRNA transfection mixture (as detailed above). At 24 hours, fresh media containing irofulven or PBS was added and the cells were incubated for an additional 72 hours. Cells were then fixed in formalin solution for 30 minutes and stained with crystal violet prepared in equal volumes of methanol and water. Excess crystal violet was removed by washing with PBS, and plates were then dried and imaged.

Structure (SMILES): CC1=C(CO)C2=C(C)C3(CC3)[C@@](C)(O)C(=O)C2=C1 [irofulven]
- irofulven sensitivity: resistant; also recorded: minimal sensitivity
